Holding throughout (test): relative viability (nuclei count vs DMSO), 5 days (fraction); higher = more cells survive
Compound in the experiment “Pemetrexed + Alpelisib”: Nc1nc2[nH]cc(CCc3ccc(C(=O)N[C@@H](CCC(=O)O)C(=O)O)cc3)c2c(=O)[nH]1 [Pemetrexed] + Cc1nc(NC(=O)N2CCC[C@H]2C(N)=O)sc1-c1ccnc(C(C)(C)C(F)(F)F)c1 [Alpelisib] (partner 2 µM)
An outline of the steps:
(§1)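 Nuclei were stained with Hoechst during a one-step fixation (final 0.05% Triton X-100, 1% formaldehyde, 1 ug/ml Hoechst) carried out 5 days after dosing, then counted on 4× images. The cells, lung cancer lines in 1536-well plates, had been dosed by pin tool the day after seeding with one drug alone or a fixed anchor-drug dose plus five library-drug doses (not always all listed) in √10 steps. Relative viability is the nuclei count in treated wells divided by that in vehicle wells, and each value is the median of duplicate plates.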

Compound in the experiment “Pemetrexed + Tozasertib”: Nc1nc2[nH]cc(CCc3ccc(C(=O)N[C@@H](CCC(=O)O)C(=O)O)cc3)c2c(=O)[nH]1 [Pemetrexed] + Cc1cc(Nc2cc(N3CCN(C)CC3)nc(Sc3ccc(NC(=O)C4CC4)cc3)n2)n[nH]1 [Tozasertib] (partner 0.1 µM)
An outline of the steps:
as §1

Compound in the experiment “Idelalisib + Pictilisib”: CC[C@H](Nc1ncnc2[nH]cnc12)c1nc2cccc(F)c2c(=O)n1-c1ccccc1 [Idelalisib] + CS(=O)(=O)N1CCN(Cc2cc3nc(-c4cccc5[nH]ncc45)nc(N4CCOCC4)c3s2)CC1 [Pictilisib] (partner 1 µM)
An outline of the steps:
as §1

Compound in the experiment “Idelalisib + Olaparib”: CC[C@H](Nc1ncnc2[nH]cnc12)c1nc2cccc(F)c2c(=O)n1-c1ccccc1 [Idelalisib] + O=C(c1cc(Cc2n[nH]c(=O)c3ccccc23)ccc1F)N1CCN(C(=O)C2CC2)CC1 [Olaparib] (partner 8 µM)
An outline of the steps: as §1

Take UMC-11: the relative viability worked out at 1.04 with Pemetrexed + Alpelisib (first compound 0.002 µM); 1.03 with Pemetrexed + Alpelisib (first compound 0.006325 µM); 1 in the experiment with Pemetrexed + Alpelisib (first compound 0.02 µM); 1.03 with Pemetrexed + Alpelisib (first compound 0.06325 µM); 0.829 in the experiment with Pemetrexed + Alpelisib (first compound 0.2 µM); 0.196 with Pemetrexed + Tozasertib (first compound 0.002 µM). In addition, the relative viability was found to be 0.217 in the experiment with Pemetrexed + Tozasertib (first compound 0.006325 µM); 0.199 with Pemetrexed + Tozasertib (first compound 0.02 µM); 0.202 in the experiment with Pemetrexed + Tozasertib (first compound 0.06325 µM); 0.208 with Pemetrexed + Tozasertib (first compound 0.2 µM); 0.939 with Idelalisib + Pictilisib (first compound 0.04 µM); 0.744 with Idelalisib + Pictilisib (first compound 0.1265 µM). For the same cell line, the relative viability in the experiment with Idelalisib + Pictilisib (first compound 0.4 µM) was determined as 0.778; with Idelalisib + Pictilisib (first compound 1.265 µM), 0.939; with Idelalisib + Pictilisib (first compound 4 µM), 0.865; with Idelalisib + Olaparib (first compound 0.04 µM) it was 0.416; with Idelalisib + Olaparib (first compound 0.1265 µM) it was 0.347; with Idelalisib + Olaparib (first compound 0.4 µM), 0.407. Also, the relative viability with Idelalisib + Olaparib (first compound 1.265 µM) was 0.631; with Idelalisib + Olaparib (first compound 4 µM) it was 0.351.

Source of the values: the supplement of paper PMC10307832.
